We go through 9 molecules from US9284325B2, “Spectinamides as anti-tuberculosis agents” (UNIVERSITY OF TENNESSEE RESEARCH FOUNDATION, priority 2009, dated 2016).

Where a name gives a salt, the structure may show the parent alone.

The subject of test [1] is Proteus vulgaris ATCC 33420. In words: MIC determination by microbroth dilution. Type of test: cell-based. Particulars: ATCC33420. (In broth dilution the organism is exposed to a series of concentrations in liquid medium.)
For another test, the system named is B. anthracis Sterne 34F2. The test can be described thus: microbe, parasite or virus in culture. Type of test: cell-based, Bacillus anthracis. The settings on record: Bacillus anthracis, STERNE34F2, read-out: MIC B. anthracis 34F2.
The subject of another test is E. faecalis ATCC 33186. In words: MIC determination by microbroth dilution. Type of test: cell-based, Enterococcus faecalis. Particulars: Enterococcus faecalis, ATCC33186.
In a further test the test system is E. coli K12. In words: MIC determination by microbroth dilution. Particulars: Escherichia coli, K12. Type of test: cell-based, Escherichia coli.
In a further test the test system is E. coli ribosomes. Type of test: biochemical. Particulars: for relative inhibitory activity on luciferase production: tested at 0.66 and 6.6 μM, FIG. 5; for IC50, 50% inhibition of luciferase biosynthesis in S30 assay: E. coli S30 transcription/translation assay.
Test [2] has as its system Burkholderia cepacia ATCC 25416. In words: MIC determination by microbroth dilution. Type of test: cell-based. Particulars: ATCC25416, read-out: MIC B. cepcia.
In test [3] the test system is Strep. pneumoniae DAW27 or strain R6. In words: MIC determination by microbroth dilution. Type of test: cell-based, Streptococcus pneumoniae. The settings on record: Streptococcus pneumoniae; Strep. pneumoniae DAW27 or strain R6 (for 1443-1544); read-out: MIC S. pneumoniae.
Test [4] concerns Strep. pyogenes ATCC 700294. In words: MIC determination by microbroth dilution. Type of test: cell-based, Streptococcus pyogenes. Particulars: Streptococcus pyogenes, ATCC700294, read-out: MIC S. pyogenes.
Another test has as its system M. tuberculosis H37Rv. In words: MIC determination by microbroth dilution, anti-tuberculosis activity. Type of test: cell-based, Mycobacterium tuberculosis. The settings on record: Mycobacterium tuberculosis, H37RV, 168 h; read-out: MIC.
The next test relates to E. coli K12 ΔtolC. The test can be described thus: microbe, parasite or virus in culture. Type of test: cell-based. The settings on record: Escherichia coli, read-out: MIC E. coli K12 ΔtolC.
The subject of test [5] is Strenotrophomonas maltophilia ATCC 13637. In words: MIC determination by microbroth dilution. Type of test: cell-based.
For test [6], the system named is Klebsiella pneumoniae ATCC 33495. In words: MIC determination by microbroth dilution. The settings on record: ATCC33495. Type of test: cell-based.
Test [7] concerns Acinetobacter baumannii ATCC 19606. The test can be described thus: MIC determination by microbroth dilution. Type of test: cell-based. Particulars: ATCC19606.
Test [8] relates to S. aureus 8325 or strain ATCC 29213. In words: MIC determination by microbroth dilution. Type of test: cell-based, Staphylococcus aureus. The settings on record: Staphylococcus aureus, ATCC29213; S. aureus 8325 or strain ATCC 29213 (for 1471-1544).
Test [9] concerns Proteus mirabilis ATCC 25933. The test can be described thus: MIC determination by microbroth dilution. Type of test: cell-based. Particulars: ATCC25933.
The next test relates to P. aeruginosa PAO1. In words: MIC determination by microbroth dilution. Particulars: Pseudomonas aeruginosa. Type of test: cell-based, Pseudomonas aeruginosa.

Consider `CN[C@@H]1[C@H](O)[C@H](NC)C2O[C@]3(O)C(OC2[C@H]1O)O[C@H](C)C[C@H]3NC(=O)CC(C)C` (stereo partly drawn) [Compound 1369, 3′-Dihydro-3′-deoxy-4(R)-(3-methyl)-butanoylamino spectinomycin Dihydrochloride], for which the MIC in test [1] was > 200 µg/mL; in the test with B. anthracis Sterne 34F2, 200 µg/mL; against E. faecalis ATCC 33186 it was > 200 µg/mL; with E. coli K12, > 200 µg/mL; in test [2], > 200 µg/mL; in [3], > 200 µg/mL. Moreover, the MIC in [4] is > 200 µg/mL; in the test on M. tuberculosis H37Rv it was 200 µg/mL; with E. coli K12 ΔtolC, > 200 µg/mL; in test [5], > 200 µg/mL; in test [6] it was > 200 µg/mL; in test [7], > 200 µg/mL. Besides, the MIC (in [8]; in test [9]; in the test on P. aeruginosa PAO1) was > 200 µg/mL throughout. The “relative inhibitory activity on luciferase production” value (shortened to “relative inhibitory activity”) in the test on E. coli ribosomes is reported as “less active than 1329”.

`CN[C@@H]1[C@H](O)[C@H](NC)C2O[C@]3(O)C(OC2[C@H]1O)O[C@H](C)C[C@H]3NC(=O)Cc1cscn1` (stereo partly drawn) [Compound 1443, 3′-Dihydro-3′-deoxy-4(R)-(thiazol-4-yl)acetylamino spectinomycin trihydrobromide]: the MIC in test [1] was > 200 µg/mL; in the test on B. anthracis Sterne 34F2, 1.6 µg/mL; in the test on E. faecalis ATCC 33186, 50 µg/mL; in the test on E. coli K12, 100 µg/mL; in [2], > 200 µg/mL; in test [3], 12.5 µg/mL. The MIC in test [4] is 6.25 µg/mL; with M. tuberculosis H37Rv it was 1.6 µg/mL; in the test with E. coli K12 ΔtolC it was 200 µg/mL; in test [5], > 200 µg/mL; in test [6] it was 100 µg/mL; in test [7], > 200 µg/mL. The MIC in test [8] is 50 µg/mL; in [9], > 200 µg/mL; in the test on P. aeruginosa PAO1 it was > 200 µg/mL. For the same molecule, the “IC50, 50% inhibition of luciferase biosynthesis in S30 assay” value (from here on “IC50, 50% inhibition”) with E. coli ribosomes was 0.29 µg/mL.

For `CN[C@@H]1[C@H](O)[C@H](NC)C2O[C@]3(O)C(OC2[C@H]1O)O[C@H](C)C[C@H]3NCc1cccc(OC)c1` (stereo partly drawn) [Compound 1423, 3′-Dihydro-3′-deoxy-4(R)-(3-methoxy)benzylamino spectinomycin Trihydrochloride], the MIC in test [1] was > 200 µg/mL; with B. anthracis Sterne 34F2, 200 µg/mL; in the test on E. faecalis ATCC 33186, > 200 µg/mL; against E. coli K12, 200 µg/mL; in test [2], > 200 µg/mL; in test [3], 200 µg/mL. The MIC in [4] was 25 µg/mL; with M. tuberculosis H37Rv it was 200 µg/mL; in the test with E. coli K12 ΔtolC it was 100 µg/mL; in test [5] it was > 200 µg/mL; in test [6], > 200 µg/mL; in test [7], > 200 µg/mL. For the same molecule, the figures for the MIC (in test [8]; in test [9]; against P. aeruginosa PAO1) were 200 µg/mL, > 200 µg/mL and > 200 µg/mL, respectively. Also, the “relative inhibitory activity” value with E. coli ribosomes is given as “inhibited well”.

For the molecule `CN[C@@H]1[C@H](O)[C@H](NC)C2O[C@]3(O)C(OC2[C@H]1O)O[C@H](C)C[C@H]3NC(=O)Cc1cccc(F)c1F` (stereo partly drawn) [Compound 1447, 3′-Dihydro-3′-deoxy-4(R)-(2,3-difluoro-phenyl)acetylamino spectinomycin Dihydrochloride], the MIC in test [1] was > 200 µg/mL; in the test on B. anthracis Sterne 34F2, 100 µg/mL; in the test on E. faecalis ATCC 33186 it was 100 µg/mL; with E. coli K12, 200 µg/mL; in test [2], > 200 µg/mL; in [3], 6.25 µg/mL. Moreover, the MIC was 6.25 µg/mL in test [4]; 50 µg/mL in the test on M. tuberculosis H37Rv; > 200 µg/mL with E. coli K12 ΔtolC; > 200 µg/mL in test [5]; 200 µg/mL in test [6]; > 200 µg/mL in [7]. Further, the MIC (in test [8]; in [9]; in the test on P. aeruginosa PAO1) was > 200 µg/mL throughout. The “IC50, 50% inhibition” value in the test with E. coli ribosomes stood at 0.22 µg/mL.

As to `CN[C@@H]1[C@H](O)[C@H](NC)C2O[C@]3(O)C(OC2[C@H]1O)O[C@H](C)C[C@H]3NC(=O)Cc1ncccn1` (stereo partly drawn) [Compound 1439, 3′-Dihydro-3′-deoxy-4(R)-(pyrimidin-2yl)acetylamino spectinomycin Dihydrochloride], the MIC in test [1] is > 200 µg/mL; in the test on B. anthracis Sterne 34F2 it was 50 µg/mL; in the test on E. faecalis ATCC 33186 it was 50 µg/mL; against E. coli K12 it was 100 µg/mL; in test [2], > 200 µg/mL; in test [3], 12.5 µg/mL. Further, the MIC was > 200 µg/mL in test [4]; > 200 µg/mL with M. tuberculosis H37Rv; 12.5 µg/mL in the test with E. coli K12 ΔtolC; > 200 µg/mL in [5]; > 200 µg/mL in test [6]; > 200 µg/mL in [7]. For the same molecule, the MIC in test [8] was 25 µg/mL; in [9], > 200 µg/mL; against P. aeruginosa PAO1, 50 µg/mL. In addition, the “IC50, 50% inhibition” value in the test on E. coli ribosomes was determined as 2.63 µg/mL. In the test on E. coli ribosomes, the “relative inhibitory activity” value is “less active than 1329”.

On to `CN[C@@H]1[C@H](O)[C@H](NC)C2O[C@]3(O)C(OC2[C@H]1O)O[C@H](C)C[C@H]3NC(=O)Cc1nc2ccccc2o1` (stereo partly drawn) [Compound 1465, 3′-Dihydro-3′-deoxy-4(R)-(benzooxazol-2-yl)acetylamino spectinomycin trihydrobromide], for which the MIC is > 200 µg/mL in test [1]; 100 µg/mL in the test on B. anthracis Sterne 34F2; 100 µg/mL with E. faecalis ATCC 33186; > 200 µg/mL in the test with E. coli K12; > 200 µg/mL in test [2]; 12.5 µg/mL in [3]. For the same molecule, the MIC in test [4] is 12.5 µg/mL; in the test on M. tuberculosis H37Rv, 3.12 µg/mL; in the test on E. coli K12 ΔtolC, 12.5 µg/mL; in [5], > 200 µg/mL; in test [6], > 200 µg/mL; in test [7] it was > 200 µg/mL. Besides, the MIC (in [8]; in [9]; in the test on P. aeruginosa PAO1) was > 200 µg/mL throughout. In addition, the “IC50, 50% inhibition” value with E. coli ribosomes worked out at 0.50 µg/mL.

Turning to `CN[C@@H]1[C@H](O)[C@H](NC)C2O[C@]3(O)C(OC2[C@H]1O)O[C@H](C)C[C@H]3NC(=O)Cc1ccc(OC)cc1` (stereo partly drawn) [Compound 1446, 3′-Dihydro-3′-deoxy-4(R)-(4-methoxy-phenyl)acetylamino spectinomycin Dihydrochloride], the MIC in [1] was > 200 µg/mL; with B. anthracis Sterne 34F2, 100 µg/mL; in the test with E. faecalis ATCC 33186, 200 µg/mL; with E. coli K12, 200 µg/mL; in test [2], > 200 µg/mL; in test [3], 6.25 µg/mL. The MIC in test [4] is 6.25 µg/mL; with M. tuberculosis H37Rv, 12.5 µg/mL; with E. coli K12 ΔtolC, > 200 µg/mL; in test [5], > 200 µg/mL; in test [6], 200 µg/mL; in test [7] it was > 200 µg/mL. The MIC (in test [8]; in test [9]; against P. aeruginosa PAO1) was > 200 µg/mL throughout. The “IC50, 50% inhibition” value with E. coli ribosomes turned out to be 0.68 µg/mL.

On to `CN[C@@H]1[C@H](O)[C@H](NC)C2O[C@]3(O)C(OC2[C@H]1O)O[C@H](C)C[C@H]3NC(=O)Cc1ccc(F)cn1` (stereo partly drawn) [Compound 1445, 3′-Dihydro-3′-deoxy-4(R)-(5-fluoropyridin-2-yl)acetylamino spectinomycin trihydrobromide], for which the MIC is > 200 µg/mL in test [1]; 25 µg/mL with B. anthracis Sterne 34F2; 25 µg/mL against E. faecalis ATCC 33186; 100 µg/mL against E. coli K12; > 200 µg/mL in test [2]; 12.5 µg/mL in [3]. Further, the MIC in test [4] was 12.5 µg/mL; in the test with M. tuberculosis H37Rv, 0.4 µg/mL; in the test with E. coli K12 ΔtolC, 200 µg/mL; in test [5], > 200 µg/mL; in [6], 100 µg/mL; in [7], > 200 µg/mL. Moreover, the figures for the MIC (in [8]; in test [9]; in the test on P. aeruginosa PAO1) were 25 µg/mL, > 200 µg/mL and > 200 µg/mL, respectively. Moreover, the “IC50, 50% inhibition” value with E. coli ribosomes is 0.25 µg/mL.

For the molecule `CN[C@@H]1[C@H](O)[C@H](NC)C2O[C@]3(O)C(OC2[C@H]1O)O[C@H](C)C[C@H]3NC(=O)c1ccc(F)cc1` (stereo partly drawn) [Compound 1364, 3′-Dihydro-3′-deoxy-4(R)-4-fluorobenzoylamino spectinomycin Dihydrochloride], the MIC in [1] was > 200 µg/mL; in the test on B. anthracis Sterne 34F2, 200 µg/mL; in the test on E. faecalis ATCC 33186, > 200 µg/mL; against E. coli K12 it was > 200 µg/mL; in [2] it was > 200 µg/mL; in [3] it was > 200 µg/mL. Further, the MIC in test [4] was 100 µg/mL; in the test on M. tuberculosis H37Rv, 50 µg/mL; with E. coli K12 ΔtolC, 100 µg/mL; in test [5], > 200 µg/mL; in test [6] it was > 200 µg/mL; in test [7], > 200 µg/mL. The MIC (in [8]; in test [9]; in the test with P. aeruginosa PAO1) was > 200 µg/mL each time. Moreover, in the test on E. coli ribosomes, the “relative inhibitory activity” value is “less active than 1329”.
